From patent publication US7879342B2, “Vaccine adjuvant and making and using the same” (Univ. of Georgia Research Foundation, Inc., priority 2004, dated 2011) come the findings set out here.

This assay deals with Eimeria tenella. The assay can be described thus: Protective immunity against Eimeria tenella challenge after in ovo treatment and live coccidiosis vaccine. The class given is in vivo, Broiler chicks. Further details: key to Mean Cecal Score: cecal lesion score per Johnson & Reid (1970); Mean Gain: unit not given here. As to conditions: challenged at 28 days. The text has this: A laboratory strain of Eimeria tenella was used as live coccidiosis vaccine (1000 oocysts per bird), and was given by individual oral gavage to day-old chicks. At 28 days of age, each bird was challenged by inoculation of virulent cecal coccidia (a field isolate of E. tenella with a challenge dose of 100,000 oocysts per bird) or kept as unchallenged controls. Six days post-challenge, birds were euthanized for necropsy and lesion score (see, e.g., Johnson & Reid, 1970, Exper. Parasitol. 28:30-36). Weight gains were calculated. […] Partial protection is not uncommon with coccidiosis vaccines administered in this way in short term challenge experiments. […]

The mark [1] stands for this setting: E10 (10 IU) in ovo, Table 2 second set.
Setting [2] is: E10 (10 IU) in ovo, Table 2 third set.
[3] abbreviates: E20 (20 IU) in ovo, Table 2 second set.
Where [4] appears, read: E20 (20 IU) in ovo, Table 2 third set.
Where [5] appears, read: E30 (30 IU) in ovo, Table 2 second set.
The mark [6] stands for this setting: E30 (30 IU) in ovo, Table 2 third set.

In the case of vitamin E, the “Mean Cecal Score” value is recorded as 1.53 under setting [1]; 1.46 under setting [2]; 1.73 under setting [3]; 1.21 under setting [4]; 1.55 under setting [5]; 0.5 under setting [6]. Also, the “Mean Gain” value was found to be 361 under setting [1]; 438 under setting [2]; 357 under setting [3]; 322 under setting [4]; 388 under setting [5]; 454 under setting [6].
